The results in this text go back to PMC6848746 (Psychopharmacology, 2019).

In one test the target is 5-HT1D (Homo sapiens, UniProt P28221). Kind of test: Radioligand binding.
The target of another test is σ1 (Rattus norvegicus, UniProt Q9R0C9). The test can be described thus: Radioligand binding.
The target of test [1] is NET (Rattus norvegicus, UniProt Q63380). Kind of test: NET-mediated release of [3H]MPP+ from rat brain synaptosomes. In kind it is biochemical. To be noted: read-out: NET-mediated release Emax.
In a further test the target is β2 (Homo sapiens, UniProt P07550). Kind of test: Radioligand binding.
For the next test, the target named is SERT (Homo sapiens, UniProt P31645). Kind of test: Radioligand binding.
A further test concerns the target 5-HT6 (Homo sapiens, UniProt P50406). The test can be described thus: Radioligand binding.
In the next test the target is β3 (Homo sapiens, UniProt P13945). Kind of test: Radioligand binding.
The target of another test is T1, α1B (Homo sapiens, UniProt P35368).
T1 sequence (P35368 1-520): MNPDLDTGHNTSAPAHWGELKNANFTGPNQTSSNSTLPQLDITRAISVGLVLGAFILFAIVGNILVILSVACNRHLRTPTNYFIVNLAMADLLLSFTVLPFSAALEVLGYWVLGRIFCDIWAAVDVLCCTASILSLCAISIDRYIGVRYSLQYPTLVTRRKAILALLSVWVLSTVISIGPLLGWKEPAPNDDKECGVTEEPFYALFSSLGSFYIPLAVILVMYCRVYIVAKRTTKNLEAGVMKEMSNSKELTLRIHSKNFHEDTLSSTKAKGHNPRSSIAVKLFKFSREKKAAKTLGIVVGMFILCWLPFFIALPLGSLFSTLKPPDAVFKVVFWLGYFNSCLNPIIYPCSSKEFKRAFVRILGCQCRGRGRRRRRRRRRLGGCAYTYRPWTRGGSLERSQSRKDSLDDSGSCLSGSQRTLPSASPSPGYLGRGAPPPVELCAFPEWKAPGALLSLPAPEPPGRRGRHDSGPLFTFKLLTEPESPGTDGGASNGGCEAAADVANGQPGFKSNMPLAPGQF
Kind of test: Radioligand binding.

In the next test the target is T2, 5-HT2C (Homo sapiens, UniProt P28335).
T2 sequence (P28335 33-458): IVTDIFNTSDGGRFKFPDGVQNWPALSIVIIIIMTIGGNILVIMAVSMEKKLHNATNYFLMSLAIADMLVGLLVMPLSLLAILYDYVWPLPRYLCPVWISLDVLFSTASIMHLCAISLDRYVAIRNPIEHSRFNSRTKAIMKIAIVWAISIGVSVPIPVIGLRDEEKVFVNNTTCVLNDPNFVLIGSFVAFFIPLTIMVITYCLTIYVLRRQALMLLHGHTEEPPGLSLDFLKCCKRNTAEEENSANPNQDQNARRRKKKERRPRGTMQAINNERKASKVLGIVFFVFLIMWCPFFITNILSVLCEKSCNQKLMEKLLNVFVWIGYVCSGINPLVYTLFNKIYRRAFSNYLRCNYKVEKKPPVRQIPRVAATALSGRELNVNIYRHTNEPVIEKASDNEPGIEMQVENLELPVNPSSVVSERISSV
The test can be described thus: Radioligand binding.

The next test addresses 5-HT2B (Homo sapiens, UniProt P41595). Kind of test: Radioligand binding.
Another test deals with T3, α2C (Homo sapiens, UniProt P18825).
T3 sequence (P18825 1-462): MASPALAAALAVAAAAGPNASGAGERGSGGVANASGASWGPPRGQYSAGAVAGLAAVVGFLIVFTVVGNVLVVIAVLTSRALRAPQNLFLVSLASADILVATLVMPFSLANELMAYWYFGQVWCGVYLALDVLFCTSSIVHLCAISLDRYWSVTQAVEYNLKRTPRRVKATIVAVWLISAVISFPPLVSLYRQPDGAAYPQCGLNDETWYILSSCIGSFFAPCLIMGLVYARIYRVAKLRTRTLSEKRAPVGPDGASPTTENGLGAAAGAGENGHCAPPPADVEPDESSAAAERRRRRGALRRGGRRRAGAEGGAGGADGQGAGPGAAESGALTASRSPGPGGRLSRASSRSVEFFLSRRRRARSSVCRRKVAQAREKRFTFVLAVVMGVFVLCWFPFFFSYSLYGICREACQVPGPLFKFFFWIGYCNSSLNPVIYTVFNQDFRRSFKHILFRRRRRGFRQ
Kind of test: Radioligand binding. To be noted: for fold lower affinity for α2C compared to 2-AI: binding, [3H]rauwolscine.

The target in test [2] is NET (Homo sapiens, UniProt P23975). Kind of test: Radioligand binding.
The next test deals with T4, α1D (Homo sapiens, UniProt P25100).
T4 sequence (P25100 1-572): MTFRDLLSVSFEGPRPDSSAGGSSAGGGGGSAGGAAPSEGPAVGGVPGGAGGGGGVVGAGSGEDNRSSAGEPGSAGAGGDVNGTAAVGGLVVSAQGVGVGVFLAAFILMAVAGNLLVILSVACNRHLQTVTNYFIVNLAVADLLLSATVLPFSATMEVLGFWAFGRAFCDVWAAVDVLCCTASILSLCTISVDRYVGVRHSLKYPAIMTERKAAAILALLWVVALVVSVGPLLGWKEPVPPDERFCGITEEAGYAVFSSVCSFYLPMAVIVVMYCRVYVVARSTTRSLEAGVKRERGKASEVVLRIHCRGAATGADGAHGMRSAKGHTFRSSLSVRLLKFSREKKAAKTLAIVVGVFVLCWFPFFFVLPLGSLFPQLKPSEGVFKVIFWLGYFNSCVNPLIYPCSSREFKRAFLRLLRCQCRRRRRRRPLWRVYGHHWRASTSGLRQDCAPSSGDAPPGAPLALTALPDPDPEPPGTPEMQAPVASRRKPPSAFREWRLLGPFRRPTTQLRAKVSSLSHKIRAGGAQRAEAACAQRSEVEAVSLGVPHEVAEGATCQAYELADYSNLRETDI
Kind of test: Radioligand binding.

SMILES strings stand for the structures. Where only a bound is given, the exact number is not on record here.

Sequence of 5-HT2B (P41595 whole entry): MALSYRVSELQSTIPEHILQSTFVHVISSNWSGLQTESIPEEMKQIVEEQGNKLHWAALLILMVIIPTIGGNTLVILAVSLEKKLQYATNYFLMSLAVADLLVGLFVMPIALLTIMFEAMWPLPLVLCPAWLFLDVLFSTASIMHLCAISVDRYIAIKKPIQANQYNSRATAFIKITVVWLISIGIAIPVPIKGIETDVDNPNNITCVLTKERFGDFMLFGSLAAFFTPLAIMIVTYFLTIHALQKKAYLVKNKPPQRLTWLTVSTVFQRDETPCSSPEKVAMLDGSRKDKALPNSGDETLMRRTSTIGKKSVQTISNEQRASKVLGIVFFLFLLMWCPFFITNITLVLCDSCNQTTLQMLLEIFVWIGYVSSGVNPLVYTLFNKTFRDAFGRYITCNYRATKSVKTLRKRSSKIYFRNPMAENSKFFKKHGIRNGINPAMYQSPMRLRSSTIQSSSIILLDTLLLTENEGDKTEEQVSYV
Sequence of β3 (P13945 whole entry): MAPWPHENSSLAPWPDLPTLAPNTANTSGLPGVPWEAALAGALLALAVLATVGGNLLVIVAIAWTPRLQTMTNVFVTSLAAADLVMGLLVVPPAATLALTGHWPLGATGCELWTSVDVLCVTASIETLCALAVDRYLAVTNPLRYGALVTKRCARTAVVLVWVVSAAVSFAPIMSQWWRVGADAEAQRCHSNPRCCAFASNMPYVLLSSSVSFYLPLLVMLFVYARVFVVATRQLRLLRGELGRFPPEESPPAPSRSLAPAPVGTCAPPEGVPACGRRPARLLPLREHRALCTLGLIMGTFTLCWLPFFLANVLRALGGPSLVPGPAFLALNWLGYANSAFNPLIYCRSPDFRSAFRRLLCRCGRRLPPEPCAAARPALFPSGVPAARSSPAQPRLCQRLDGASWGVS
Sequence of NET (Rattus norvegicus, UniProt Q63380) (Q63380 1-617): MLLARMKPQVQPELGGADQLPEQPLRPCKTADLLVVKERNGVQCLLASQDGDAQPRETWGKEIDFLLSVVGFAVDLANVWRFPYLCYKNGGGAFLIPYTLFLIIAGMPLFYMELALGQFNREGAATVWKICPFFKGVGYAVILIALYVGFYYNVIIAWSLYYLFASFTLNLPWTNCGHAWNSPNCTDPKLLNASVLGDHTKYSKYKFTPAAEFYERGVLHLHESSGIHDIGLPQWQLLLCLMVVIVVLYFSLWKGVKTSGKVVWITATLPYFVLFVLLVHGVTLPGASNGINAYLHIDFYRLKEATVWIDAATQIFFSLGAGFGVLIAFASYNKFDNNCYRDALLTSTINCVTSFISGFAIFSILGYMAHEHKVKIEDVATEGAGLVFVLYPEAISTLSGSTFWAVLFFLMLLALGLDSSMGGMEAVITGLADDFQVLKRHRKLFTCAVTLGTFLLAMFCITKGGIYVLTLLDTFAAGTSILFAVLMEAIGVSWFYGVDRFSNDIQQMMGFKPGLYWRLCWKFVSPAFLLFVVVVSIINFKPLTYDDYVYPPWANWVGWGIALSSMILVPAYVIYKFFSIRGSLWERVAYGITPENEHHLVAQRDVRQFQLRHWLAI
Sequence of NET (Homo sapiens, UniProt P23975) (P23975 whole entry): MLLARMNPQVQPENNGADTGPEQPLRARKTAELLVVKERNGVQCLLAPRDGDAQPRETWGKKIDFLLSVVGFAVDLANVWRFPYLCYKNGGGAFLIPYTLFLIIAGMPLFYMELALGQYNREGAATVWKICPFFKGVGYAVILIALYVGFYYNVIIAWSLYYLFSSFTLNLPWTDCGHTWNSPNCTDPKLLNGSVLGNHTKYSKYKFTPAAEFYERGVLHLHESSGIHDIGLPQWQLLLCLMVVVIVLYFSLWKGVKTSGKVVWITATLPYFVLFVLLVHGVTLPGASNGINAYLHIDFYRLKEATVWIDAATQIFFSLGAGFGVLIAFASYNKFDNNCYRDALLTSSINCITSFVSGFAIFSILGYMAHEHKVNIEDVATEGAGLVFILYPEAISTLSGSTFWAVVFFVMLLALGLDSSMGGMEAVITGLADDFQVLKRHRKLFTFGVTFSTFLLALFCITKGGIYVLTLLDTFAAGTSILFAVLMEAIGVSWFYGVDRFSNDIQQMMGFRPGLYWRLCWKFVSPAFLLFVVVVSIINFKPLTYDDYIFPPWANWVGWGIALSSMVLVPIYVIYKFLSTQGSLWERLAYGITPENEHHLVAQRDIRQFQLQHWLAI
Sequence of SERT (P31645 whole entry): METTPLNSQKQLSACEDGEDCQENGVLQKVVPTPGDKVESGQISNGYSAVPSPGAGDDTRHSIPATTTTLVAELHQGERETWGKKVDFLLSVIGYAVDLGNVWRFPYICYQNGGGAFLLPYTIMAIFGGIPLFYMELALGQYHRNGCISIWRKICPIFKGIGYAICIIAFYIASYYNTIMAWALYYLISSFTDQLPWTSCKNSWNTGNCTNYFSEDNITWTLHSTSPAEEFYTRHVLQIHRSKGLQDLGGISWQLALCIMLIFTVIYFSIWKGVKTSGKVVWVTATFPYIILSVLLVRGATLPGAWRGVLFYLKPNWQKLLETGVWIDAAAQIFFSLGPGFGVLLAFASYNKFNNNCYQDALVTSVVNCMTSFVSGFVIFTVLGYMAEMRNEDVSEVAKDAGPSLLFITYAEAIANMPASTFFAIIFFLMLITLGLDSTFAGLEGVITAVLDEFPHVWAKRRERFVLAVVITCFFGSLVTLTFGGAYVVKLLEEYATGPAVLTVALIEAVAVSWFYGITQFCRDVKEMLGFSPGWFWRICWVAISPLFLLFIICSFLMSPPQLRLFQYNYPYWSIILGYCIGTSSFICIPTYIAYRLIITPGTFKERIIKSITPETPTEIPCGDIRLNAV
Sequence of σ1 (Q9R0C9 whole entry): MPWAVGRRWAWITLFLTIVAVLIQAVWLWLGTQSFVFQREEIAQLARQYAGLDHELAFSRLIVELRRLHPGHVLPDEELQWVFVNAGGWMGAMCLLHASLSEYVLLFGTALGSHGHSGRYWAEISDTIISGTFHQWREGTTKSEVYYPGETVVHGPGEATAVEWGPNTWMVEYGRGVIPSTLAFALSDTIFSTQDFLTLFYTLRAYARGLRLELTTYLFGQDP
Sequence of 5-HT6 (P50406 whole entry): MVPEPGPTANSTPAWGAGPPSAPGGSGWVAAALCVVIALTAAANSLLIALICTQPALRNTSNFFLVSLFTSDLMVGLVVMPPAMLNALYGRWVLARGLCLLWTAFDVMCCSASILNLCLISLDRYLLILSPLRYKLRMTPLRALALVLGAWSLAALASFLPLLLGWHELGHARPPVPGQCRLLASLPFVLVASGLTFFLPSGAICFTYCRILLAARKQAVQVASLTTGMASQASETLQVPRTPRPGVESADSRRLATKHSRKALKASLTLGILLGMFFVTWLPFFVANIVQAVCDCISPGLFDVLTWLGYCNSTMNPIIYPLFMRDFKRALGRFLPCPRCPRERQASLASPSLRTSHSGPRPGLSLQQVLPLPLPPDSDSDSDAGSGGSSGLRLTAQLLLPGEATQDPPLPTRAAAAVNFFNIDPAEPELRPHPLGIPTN
Sequence of 5-HT1D (P28221 whole entry): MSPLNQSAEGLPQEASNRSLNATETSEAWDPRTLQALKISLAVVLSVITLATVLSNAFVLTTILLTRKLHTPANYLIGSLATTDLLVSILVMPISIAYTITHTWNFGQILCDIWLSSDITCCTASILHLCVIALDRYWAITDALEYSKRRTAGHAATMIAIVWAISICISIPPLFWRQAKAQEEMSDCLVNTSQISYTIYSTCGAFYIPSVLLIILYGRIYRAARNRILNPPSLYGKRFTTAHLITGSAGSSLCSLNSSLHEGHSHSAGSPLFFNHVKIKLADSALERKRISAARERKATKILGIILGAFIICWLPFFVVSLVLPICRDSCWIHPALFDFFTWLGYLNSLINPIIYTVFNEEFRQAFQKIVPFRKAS
Sequence of β2 (P07550 whole entry): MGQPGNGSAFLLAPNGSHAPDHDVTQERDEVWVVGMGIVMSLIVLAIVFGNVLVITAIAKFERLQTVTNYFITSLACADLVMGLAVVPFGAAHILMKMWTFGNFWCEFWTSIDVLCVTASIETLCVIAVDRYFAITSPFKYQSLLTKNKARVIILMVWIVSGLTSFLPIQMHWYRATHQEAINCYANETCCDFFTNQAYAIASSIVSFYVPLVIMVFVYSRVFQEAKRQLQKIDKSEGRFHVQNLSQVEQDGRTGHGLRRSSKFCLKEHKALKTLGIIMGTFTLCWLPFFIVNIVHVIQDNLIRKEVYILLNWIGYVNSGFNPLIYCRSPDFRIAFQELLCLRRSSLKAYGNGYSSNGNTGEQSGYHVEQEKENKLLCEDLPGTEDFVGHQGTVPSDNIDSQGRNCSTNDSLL

A word on the Ki: it is the dissociation constant of the complex between target and ligand, obtained from inhibition or displacement. A low value points to higher affinity. By Emax is commonly meant the maximal effect, on the per cent scale that the assay sets. On to `COc1cc2c(cc1C)CC(N)C2` (stereo not shown) [MMAI, 5-methoxy-6-methyl-2-aminoindan], for which the Ki is 2.56 µM on 5-HT1D; over 10 µM on σ1; over 10 µM at β2; 4.82 µM at SERT; over 10 µM on 5-HT6; over 10 µM on β3. In addition, the Ki at α1B is over 10 µM; on 5-HT2C, over 10 µM; at 5-HT2B it was 0.902 ± 0.445 µM; on α2C, 1.38 µM; at NET [2], over 10 µM; at α1D, over 10 µM. Moreover, the Emax on NET [1] is 105%. Besides, the “fold lower affinity for α2C compared to 2-AI” value at α2C was 30 fold.

As for `NC1Cc2cc3c(cc2C1)OCO3` [MDAI, 5,6-methylenedioxy-2-aminoindan], the Ki at 5-HT1D, at σ1, at β2, on SERT, at 5-HT6 and on β3 was over 10 µM each time. The Ki at α1B was over 10 µM; at 5-HT2C, over 10 µM; on 5-HT2B it was over 10 µM; on α2C it was 0.363 ± 0.219 µM; at NET [2], over 10 µM; on α1D, over 10 µM. In addition, at NET [1], the Emax is 99%. The “displacement at 5-HT2B receptor” value on 5-HT2B (at 10 μM, primary binding assay) is given as under 50%.

As for `COc1ccc2c(c1)CC(N)C2` (stereo not shown) [5-MeO-AI, 5-methoxy-2-aminoindan], the Ki at 5-HT1D, on σ1, on β2, at SERT, at 5-HT6 and on β3 was over 10 µM each time. Further, the Ki is over 10 µM at α1B; over 10 µM at 5-HT2C; 4.79 µM at 5-HT2B; 1.22 µM at α2C; over 10 µM at NET [2]; over 10 µM at α1D. In addition, the Emax at NET [1] was 101%. Also, on α2C, the “fold lower affinity for α2C compared to 2-AI” value came out at 30 fold.

For the compound `NC1Cc2ccccc2C1` [2-AI, 2-aminoindan], the Ki at 5-HT1D, on σ1, on β2, on SERT, on 5-HT6 and on β3 was over 10 µM throughout. For the same compound, the Ki on α1B is over 10 µM; on 5-HT2C it was over 10 µM; at 5-HT2B, over 10 µM; on α2C, 0.041 ± 0.026 µM; on NET [2], over 10 µM; on α1D, over 10 µM. The Emax at NET [1] was 95%.
